Values belong to the compound of their own block, whether it stands above or below them.
How the values were obtained:
[1] = Stability study of triclinic form recrystallised from cyclohexane, PXRD; type: physicochemical; conditions: recrystallised from cyclohexane at 80° C., vacuum dried
Description: The product obtained was vacuum dried and the crystal form was confirmed by PXRD.

[2] = Pharmacokinetic study of artemisinin, plasma level by HPLC; type: in vivo, albino wistar rats; conditions: rats, 100 mg artemisinin in 0.5% aqueous CMC
Method: A pharmacokinetic study of artemisinin was carried out. The study was performed using 36 healthy albino wistar rats with a weight ranging from 180 to 200 grams. The wistar rats were taken and divided into three groups; a control group, the orthorhombic crystal form group and the triclinic crystal form group. A sparse technique was used to collect blood samples (n=6). The animals were housed in standard metabolism cages and were subject to fasting conditions for 12 hours before dosing. The animals were allowed free movement and access to water throughout the experiment. […] At predetermined time intervals, blood samples were obtained by the retro orbital technique and collected in EDTA tubes. Plasma was obtained by centrifugation of the blood sample at 3500 revolutions per minute (rpm) for 15 minutes. A volume of 200 μl of plasma was pipetted into Eppendorf tubes and 100 μl of internal standard (artemether solution […]) and 700 μl methanol were added. […] The collected sample was then subjected to analysis by HPLC. […] The HPLC system consisted of an Agilent 1200 series, UV detector (Agilent Technologies, […], Wokingham, United Kingdom) set at 210 nm and a C18 column (250×4.6 mm). […] The plasma concentration-time profiles were plotted and Areas Under Curve (AUC) were calculated (shown in FIG. 35) using the Trapezoidal rule.

[3] = Effect of externally added solvents on extruded triclinic form, stability by PXRD; type: physicochemical
Description: Effect of different solvents such as acetone, ethanol, cyclohexane, methanol and water on extruded triclinic form was studied. […] FIGS. 21 to 25 show the PXRD patterns highlighting the effect of adding the different solvents to extrude. It was observed that conversion rate from triclinic to orthorhombic form was proportional to solubility of orthorhombic form in each solvent.

[4] = In-vitro dissolution profile, USP-XXVI paddle method; type: physicochemical; conditions: water, 600 ml, 75 rpm, 37° C., 20 mg artemisinin

Structure (SMILES): C[C@@H]1CC[C@H]2[C@@H](C)C(=O)O[C@@H]3O[C@@]4(C)CC[C@@H]1[C@]32OO4 [artemisinin]
stability of crystal form (transformation to orthorhombic form) [1]: transformed to orthorhombic form within a week

average maximum concentration (Cmax) ([2]; oral, plasma): 16000 ng/mL | average time where the concentration reached a maximum (Tmax) ([2]; oral, plasma): 4 h
Structure (SMILES): C[C@@H]1CC[C@H]2[C@@H](C)C(=O)O[C@@H]3O[C@@]4(C)CC[C@@H]1[C@]32OO4 [orthorhombic form, artemisinin, reference compound]

transformation to orthorhombic form in the sample containing water ([3]; 0.2 ml water added to 3 g extruded sample): no transformation was observed | dissolution rate in comparison with starting material [4]: four times greater | Cmax ([2]; albino Wistar, rat, plasma, po, 100 mg, plasma, read-out: average maximum concentration (Cmax)): 31000 ng/mL | Tmax ([2]; albino Wistar, rat, plasma, po, 100 mg, plasma, read-out: average time where the concentration reached a maximum (Tmax)): 5 h | AUC compared with the orthorhombic form ([2]; oral): two fold increase
Structure (SMILES): C[C@@H]1CC[C@H]2[C@@H](C)C(=O)O[C@@H]3O[C@@]4(C)CC[C@@H]1[C@]32OO4 [triclinic form, artemisinin]
rank order of transformation from triclinic to orthorhombic form ([3]; 0.2 ml solvent added to 3 g extruded sample): acetone>methanol>ethanol>cyclohexane>water

— patent US20150165400A1, “CRYSTALLISATION PROCESS” (University of Bradford, priority 2012, published 2015)
